In patent US6512000B1, “Aminocarbonyl-substituted benzimidazoles having tryptase-inhibitory activity” (Boehringer Ingelheim Pharma KG, priority 1999, dated 2003):

Molecular target: T1, rh beta tryptase (Homo sapiens, UniProt P20231)
T1 construct: purchased Promega
Experiment: Tryptase inhibition test (cleavage of N-p-tosyl-Gly-Pro-Lys-para-nitroaniline, p-nitroaniline measured at 405 nm)
Format: biochemical
Details: pH 7.4, 37° C.; for IC50: concentration at which 50% of the tryptase enzyme activity is inhibited, substrate 0.6 mM
Method in brief: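 Recombinant human beta tryptase (0.91 U/ml) in 100 mM Tris HCl pH 7.4 with 5 mM calcium and 100 mg/ml heparin; compounds pre-incubated 5 min, then 0.6 mM tosyl-Gly-Pro-Lys-pNA added, 5 min at 37 °C. p-Nitroaniline read at 405 nm; % inhibition at 10 μM, IC50 determined when inhibition exceeded 70%.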

[1] = inhibition of rh beta tryptase at 10 μM test substance, substrate N-p-tosyl-Gly-Pro-Lys-para-nitroaniline 0.6 mM, 5 minutes

T1 sequence (P20231 31-275): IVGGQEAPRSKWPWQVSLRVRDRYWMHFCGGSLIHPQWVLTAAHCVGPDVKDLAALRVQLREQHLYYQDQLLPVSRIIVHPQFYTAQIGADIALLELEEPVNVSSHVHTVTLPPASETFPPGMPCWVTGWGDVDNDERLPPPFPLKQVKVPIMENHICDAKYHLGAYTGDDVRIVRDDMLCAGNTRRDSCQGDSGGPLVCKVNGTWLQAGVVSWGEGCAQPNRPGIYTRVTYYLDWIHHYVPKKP

SMILES	% Inhibition (10 μM) [1] [%]	inhibition at 10 µM [1] [%]	IC50 [nM]
CCCCN(Cc1ccc(CN)cc1)C(=O)c1ccc2c(c1)nc(CCc1ccc(C(=N)N)cc1)n2CCCNC(=O)Cc1ccccc1 [Example 88]	70		
CCCCN(Cc1ccc(CN)cc1)C(=O)c1ccc2c(c1)nc(CCc1ccc(C(=N)N)cc1)n2CCc1ccccc1 [Example 91, 2-[2-(4-amidinophenyl)ethyl]-1-(2-phenylethyl)-benzimidazol-5-yl-carboxylic acid-N-[4-(amino-methyl)-benzyl]-N-n-butyl-amide]		62	
CCCCN(Cc1ccc(CN)cc1)C(=O)c1ccc2c(c1)nc(CCc1ccc(C(=N)N)cc1)n2Cc1ccc(C)cc1 [Example 93, 2-[2-(4-amidinophenyl)ethyl]-1-(4-methylbenzyl)-benzimidazol-5-yl-carboxylic acid-N-[4-(amino-methyl)-benzyl]-N-n-butyl-amide]		56	
CCCCN(Cc1ccc(CN)cc1)C(=O)c1ccc2c(c1)nc(CCc1ccc(C(=N)N)cc1)n2CCCN1CCN(c2ccccc2C)CC1 [Example 96, 2-[2-(4-amidinophenyl)ethyl]-1-{3-[4-(2-methylphenyl)-piperazin-1-yl]-propyl}-benzimidazol-5-yl-carboxylic acid-N-[4-(amino-methyl)-benzyl]-N-n-butyl-amide]		55	
CCCCN(Cc1ccc(CN)cc1)C(=O)c1ccc2c(c1)nc(CCc1ccc(C(=N)N)cc1)n2CC1CCCO1 (stereo not drawn) [Example 98, 2-[2-(4-amidinophenyl)ethyl]-1-(tetrahydrofuran-2-yl-methyl)-benzimidazol-5-yl-carboxylic acid-N-[4-(amino-methyl)-benzyl]-N-n-butyl-amide]		67	
CCCCN(Cc1ccc(CN)cc1)C(=O)c1ccc2c(c1)nc(CCc1ccc(C(=N)N)cc1)n2Cc1cccs1 [Example 99, 2-[2-(4-amidinophenyl)ethyl]-1-(2-thiophenyl-methyl)-benzimidazol-5-yl-carboxylic acid-N-[4-(amino-methyl)-benzyl]-N-n-butyl-amide]		58	
CCCCN(CCCC)CCCn1c(CCc2ccc(C(=N)N)cc2)nc2cc(C(=O)N(Cc3ccccc3)Cc3ccc(CN)cc3)ccc21 [Example 103, 2-[2-(4-amidinophenyl)ethyl]-1-(3-di-n-butylaminopropyl)-benzimidazol-5-yl-carboxylic acid-N-[4-(amino-methyl)-benzyl]-N-benzyl-amide]		60	
N=C(N)c1ccc(CCc2nc3cc(C(=O)N(Cc4ccccc4)Cc4ccc(CN)cc4)ccc3n2CCCNC(=O)Cc2ccccc2)cc1 [Example 104, 2-[2-(4-amidinophenyl)ethyl]-1-[3-(benzylcarbonylamino)-propyl]-benzimidazol-5-yl-carboxylic acid-N-[4-(amino-methyl)-benzyl]-N-benzyl-amide]		74	
N=C(N)c1ccc(CCc2nc3cc(C(=O)N(Cc4ccccc4)Cc4ccc(CN)cc4)ccc3n2CC2CC2)cc1 [Example 106, 2-[2-(4-amidinophenyl)ethyl]-1-cyclopropylmethyl-benzimidazol-5-yl-carboxylic acid-N-[4-(amino-methyl)-benzyl]-N-benzyl-amide]		58	
N=C(N)c1ccc(CCc2nc3cc(C(=O)N(Cc4ccccc4)Cc4ccc(CN)cc4)ccc3n2CCCN2CCOCC2)cc1 [Example 113, 2-[2-(4-amidinophenyl)ethyl]-1-[3-(morpholin-4-yl)-propyl]-benzimidazol-5-yl-carboxylic acid-N-[4-(amino-methyl)-benzyl]-N-benzyl-amide]		56	
N=C(N)c1ccc(CCc2nc3cc(C(=O)N(Cc4ccc(CN)cc4)CC4CCCCC4)ccc3n2CCCNC(=O)Cc2ccccc2)cc1 [Example 152, 2-[2-(4-amidinophenyl)ethyl]-1-[3-(benzylcarbonylamino)-propyl]-benzimidazol-5-yl-carboxylic acid-N-[4-(amino-methyl)-benzyl]-N-cyclohexylmethyl-amide]		65	
N=C(N)c1ccc(CCc2nc3cc(C(=O)N(Cc4ccc(CN)cc4)CC4CCCCC4)ccc3n2CCc2ccccc2)cc1 [Example 155, 2-[2-(4-amidinophenyl)ethyl]-1-(2-phenylethyl)-benzimidazol-5-yl-carboxylic acid-N-[4-(amino-methyl)-benzyl]-N-cyclohexylmethyl-amide]		57	
N=C(N)c1ccc(CCc2nc3cc(C(=O)N(Cc4ccc(CN)cc4)CC4CCCCC4)ccc3n2CC2CCCO2)cc1 (stereo not drawn) [Example 162, 2-[2-(4-amidinophenyl)ethyl]-1-(tetrahydrofuran-2-yl-methyl)-benzimidazol-5-yl-carboxylic acid-N-[4-(amino-methyl)-benzyl]-N-cyclohexylmethyl-amide]		60	
CCOCCCn1c(CCc2ccc(C(=N)N)cc2)nc2cc(C(=O)N(CCCc3ccccc3)Cc3ccc(CN)cc3)ccc21 [Example 166, 2-[2-(4-amidinophenyl)ethyl]-1-(3-ethoxypropyl)-benzimidazol-5-yl-carboxylic acid-N-[4-(amino-methyl)-benzyl]-N-(3-phenylpropyl)-amide]		57	274
CCCCN(CCCC)CCCn1c(CCc2ccc(C(=N)N)cc2)nc2cc(C(=O)N(CCCc3ccccc3)Cc3ccc(CN)cc3)ccc21 [Example 167, 2-[2-(4-amidinophenyl)ethyl]-1-(3-di-n-butylaminopropyl) benzimidazol-5-yl-carboxylic acid-N-[4-(amino-methyl)-benzyl]-N-(3-phenylpropyl)-amide]		52	
N=C(N)c1ccc(CCc2nc3cc(C(=O)N(CCCc4ccccc4)Cc4ccc(CN)cc4)ccc3n2CCCNC(=O)Cc2ccccc2)cc1 [Example 168, 2-[2-(4-amidinophenyl)ethyl]-1-[3-(benzylcarbonylamino)-propyl]-benzimidazol-5-yl-carboxylic acid-N-[4-(amino-methyl)-benzyl]-N-(3-phenylpropyl)-amide]		66	
N=C(N)c1ccc(CCc2nc3cc(C(=O)N(CCCc4ccccc4)Cc4ccc(CN)cc4)ccc3n2CCC2CCCCC2)cc1 [Example 169, 2-[2-(4-amidinophenyl)ethyl]-1-(2-cyclohexylethyl)-benzimidazol-5-yl-carboxylic acid-N-[4-(amino-methyl)-benzyl]-N-(3-phenylpropyl)-amide]		52	
N=C(N)c1ccc(CCc2nc3cc(C(=O)N(CCCc4ccccc4)Cc4ccc(CN)cc4)ccc3n2CC2CC2)cc1 [Example 170, 2-[2-(4-amidinophenyl)ethyl]-1-cyclopropylmethyl-benzimidazol-5-yl-carboxylic acid-N-[4-(amino-methyl)-benzyl]-N-(3-phenylpropyl)-amide]		57	

More lines, now with the values ahead:

% Inhibition (10 μM) [1] [%]	inhibition at 10 µM [1] [%]	IC50 [nM]	SMILES
	67		CCCCN(Cc1ccc(CN)cc1)C(=O)c1ccc2c(c1)nc(CCc1ccc(C(=N)N)cc1)n2CC1CC1 [Example 90, 2-[2-(4-amidinophenyl)ethyl]-1-cyclopropylmethyl-benzimidazol-5-yl-carboxylic acid-N-[4-(amino-methyl)-benzyl]-N-n-butyl-amide]
	56		CCCCN(Cc1ccc(CN)cc1)C(=O)c1ccc2c(c1)nc(CCc1ccc(C(=N)N)cc1)n2CCCN1CCOCC1 [Example 97, 2-[2-(4-amidinophenyl)ethyl]-1-[3-(morpholin-4-yl)-propyl]-benzimidazol-5-yl-carboxylic acid-N-[4-(amino-methyl)-benzyl]-N-n-butyl-amide]
	67		CCCCN(Cc1ccc(CN)cc1)C(=O)c1ccc2c(c1)nc(CCc1ccc(C(=N)N)cc1)n2Cc1ccc2c(c1)OCO2 [Example 100, 2-[2-(4-amidinophenyl)ethyl]-1-(1,3-benzodioxol-5-yl-methyl)-benzimidazol-5-yl-carboxylic acid-N-[4-(amino-methyl)-benzyl]-N-n-butyl-amide]
		369	CCOCCCn1c(CCc2ccc(C(=N)N)cc2)nc2cc(C(=O)N(Cc3ccccc3)Cc3ccc(CN)cc3)ccc21 [Example 102, 2-[2-(4-amidinophenyl)ethyl]-1-(3-ethoxypropyl)-benzimidazol-5-yl-carboxylic acid-N-[4-(amino-methyl)-benzyl]-N-benzyl-amide]
	65	344	N=C(N)c1ccc(CCc2nc3cc(C(=O)N(Cc4ccccc4)Cc4ccc(CN)cc4)ccc3n2CCc2ccccc2)cc1 [Example 107, 2-[2-(4-amidinophenyl)ethyl]-1-(2-phenylethyl)-benzimidazol-5-yl-carboxylic acid-N-[4-(amino-methyl)-benzyl]-N-benzyl-amide]
	58		N=C(N)c1ccc(CCc2nc3cc(C(=O)N(Cc4ccccc4)Cc4ccc(CN)cc4)ccc3n2CC2CCCO2)cc1 (stereo not drawn) [Example 114, 2-[2-(4-amidinophenyl)ethyl]-1-(tetrahydrofuran-2-yl-methyl)-benzimidazol-5-yl-carboxylic acid-N-[4-(amino-methyl)-benzyl]-N-benzyl-amide]
	60	292	CCOCCCn1c(CCc2ccc(C(=N)N)cc2)nc2cc(C(=O)N(Cc3ccc(CN)cc3)CC3CCCCC3)ccc21 [Example 150, 2-[2-(4-amidinophenyl)ethyl]-1-(3-ethoxypropyl)-benzimidazol-5-yl-carboxylic acid-N-[4-(amino-methyl)-benzyl]-N-cyclohexylmethyl-amide]
	63		N=C(N)c1ccc(CCc2nc3cc(C(=O)N(Cc4ccc(CN)cc4)CC4CCCCC4)ccc3n2CC2CC2)cc1 [Example 154, 2-[2-(4-amidinophenyl)ethyl]-1-cyclopropylmethyl-benzimidazol-5-yl-carboxylic acid-N-[4-(amino-methyl)-benzyl]-N-cyclohexylmethyl-amide]
	56		N=C(N)c1ccc(CCc2nc3cc(C(=O)N(Cc4ccc(CN)cc4)CC4CCCCC4)ccc3n2CCCN2CCOCC2)cc1 [Example 161, 2-[2-(4-amidinophenyl)ethyl]-1-[3-(morpholin-4-yl)-propyl]-benzimidazol-5-yl-carboxylic acid-N-[4-(amino-methyl)-benzyl]-N-cyclohexylmethyl-amide]
